Measurements: US12502398B2, “Combination therapy for treating cancer” (AstraZeneca AB, priority 2019, dated 2025)

Experiments:
[1] = system: Mouse MC38 colorectal cancer cells expressing OVA antigen; assay: MC38-OVA syngeneic tumor model, tumor volume; format: in vivo; details: COMPOUND 12 30 mg/kg orally twice per day, Anti-PDL1 10 mg/kg ip twice per week
Procedure: (§1) Mouse MC38 colorectal cancer cells expressing OVA antigen (5×10^5 cells/mouse), were subcutaneously implanted in the right flank of 6 to 8 weeks old female C57BL/6 mice. On day 6 post transplant, groups of mice were treated with vehicle (water), 30 mg/kg COMPOUND 12, 10 mg/kg Anti-PDL1 (MEDI4736), or the combination. COMPOUND 12 was formulated in water and dosed orally twice per day. MEDI4736 was formulated in 1×PBS and dosed intraperitoneally twice per week for 2 weeks. Tumor length and width was measured by caliper and tumor volume was calculated using the formula (length×width^2)*π/6 then reported as tumor volume as calculated.

[2] = system: Mouse CT.26 WT colorectal cancer cells; assay: CT.26 WT syngeneic tumor model, tumor volume; format: in vivo; details: COMPOUND 12 30 mg/kg orally twice per day, Anti-PDL1 10 mg/kg ip twice per week
Procedure: as §1, with “CT.26 WT” for “MC38”, “cells” for “cells expressing OVA antigen”, “Balb/C” for “C57BL/6”, “implant,” for “transplant,”, “combination. Additional groups were treated with 10 mg/kg Anti-NKG2A (monalizumab), in combination with either COMPOUND 12 or MEDI4736, or a triplicate of COMPOUND 12, monalizumab and MEDI4736.” for “combination.”, “weeks. Monalizumab was formulated in 1×PBS and dosed intravenously twice per week for 1.5 weeks (3 doses).” for “weeks.”

[3] = system: Mouse Lewis lung (LL/2) carcinoma cells; assay: LL/2 syngeneic tumor model with TLR3 agonist, tumor volume; format: in vivo; details: Poly I:C 7.5 mg/kg ip 3x/week; for efficacy / monotherapy activity (in words): COMPOUND 12 30 mg/kg po BID
Procedure: Mouse Lewis lung (LL/2) carcinoma cells (1×10^6 cells/mouse), were subcutaneously implanted in the right flank of 6 to 8 weeks old C57BL/6 mice. On day 6 post implant, groups of mice were treated with vehicle (water), 30 mg/kg COMPOUND 12, 7.5 mg/kg TLR3 agonist (Poly I:C), or the combination. COMPOUND 12 was formulated in water and dosed orally twice per day. Poly I:C was formulated in water and dosed intraperitoneally 3×/week. Tumor length and width was measured by caliper and tumor volume was calculated using the formula (length×width^2)*π/6 then reported as tumor volume as calculated.

[4] = system: MC38-OVA model; assay: In vivo PD study of immune cell changes in MC38-OVA model (flow cytometry); set-up: species or system mouse; details: draining lymph node
Procedure: For monitoring immune cell changes tumors were harvested either four, ten or fourteen days post treatment. Tumors were excised and mechanically minced. Tumors were then incubated with tumor dissociation enzyme mix (Miltenyi Biotec) at 37° C. for 40 min in gentle MACS instrument (Miltenyi biotec). Single cell suspension were made and stained for a variety of immune cell markers to determine the immune cell changes post treatment using multicolor flow cytometry. Furthermore, the functional response of CD8+ cytotoxic T cells was evaluated by ex vivo restimulation with phorbol 12-myristate-13-acetate (PMA) and ionomycin prior to analysis.

[5] = system: LL/2 murine lung carcinoma cells; assay: LL/2 syngeneic lung tumor model with radio therapy; format: in vivo, mouse; details: COMPOUND 12 30 mg/kg twice daily, radiation 5 gray on days 6 and 9 after implant
Procedure: Six-eight week old BL/6 mice (Charles River Labs) were implanted with 1e6 LL/2 murine lung carcinoma cells subcutaneously on the right flank. At 6 days post implant, animals were randomized by mean cage tumor volume into four groups (n=12/ group). Group 1 was anesthetized for mock irradiation on days 6 and 9, and dosed with vehicle (water) PO, BID starting on day 6. Group 2 was anesthetized and given 5 Gy of radiation targeted to the tumor on days 6 and 9. Group 3 was administered AZ8400 at 30 mg/kg PO bid starting on Day 6, and Group 4 was administered AZ8400 at 30 mg/kg starting on Day 6, and anesthetized and irradiated on days 6 and 9. Body weight and tumor volume were measured twice weekly until tumors were >1500 mm3, at which point mice were humanely sacrificed

Compound | efficacy (in words) [1] | efficacy (in words) [2] | efficacy / monotherapy activity (in words) [3] | IFNg producing CD8+ T cells in the periphery (draining LN) [4] | TNFa producing CD8+ T cells in the periphery (draining LN) [4] | tumor growth inhibition [5] | TGI on day 16 ([3]; day 16) [%]
CC(C)[C@H](N)C(=O)N[C@H]1CN[C@@](CCCCB(O)O)(C(=O)O)C1 [COMPOUND 12, (2R,4R)-4-((S)-2-amino-3-methylbutanamido)-2-(4-boronobutyl)pyrrolidine-2-carboxylic acid] | modestly efficacious | modestly efficacious | modestly efficacious | increase | increase | about 30% | 
Anti-PDL1: MEDI4736, also known as durvalumab, an anti-PD-L1 antibody [reference compound] | modest efficacy | modest efficacy |  |  |  |  | 
polyinosinic:polycytidylic acid [Poly I:C] |  |  | moderate monotherapy activity |  |  |  | 76
